# Laboratory results published in article PMC12636036, “Precise Detection of Surgical Margin in Head and Neck Cancer Using Dual Near-Infrared Imaging of the Tumor and Tumor Microenvironment” (Biomaterials Research, 2025).
# How the values were obtained:
# FaDu cells [1] = experiment: Cell binding assay; type: cell-based; conditions: OCTL14 20 min, cRGD-ZW800-PEG 30 min, Cy5 / Cy7 fluorescence imaging, n = 6
# Method: To evaluate the cellular uptake of OCTL14 and cRGD-ZW800-PEG in HNSCC cells, a cell binding assay was done using FaDu cells (HTB-43), purchased from the American Type Culture Collection (Manassas, VA, USA). The cells were first cultured in complete Dulbecco’s modified Eagle’s medium (cDMEM) supplemented with 4.5 g/l glucose, L-glutamine and sodium pyruvate, 10% FBS, and 1% penicillin/streptomycin (Lonza, DE17-602E) at 37 °C in a 5% CO2 humidified chamber. Then, cells were seeded in a 24-well plate at a density of 20,000 cells/well and incubated for 24 h. After discarding old medium and washing twice with Hanks’ balanced salt solution (HBSS), the cells were incubated with OCTL14 for 20 min and with cRGD-ZW800-PEG for 30 min, respectively. The wells were washed 3 times with HBSS before fluorescence images were captured using Cy5 and Cy7 filters on Cytation 5 for OCTL14 and cRGD-ZW800-PEG, respectively.
# FaDu cells [2] = experiment: Cell viability assay (CCK-8); type: cell-based; conditions: FaDu cells
# Method: (§1) To evaluate the toxicity of OCTL14 and cRGD-ZW800-PEG on FaDu cells, cell viability was measured by using the Cell Counting Kit-8 (CCK-8, Dojindo Molecular Technologies Inc., Kumamoto, Japan). FaDu cells were seeded at a density of 400 cells/well in a 96-well plate, and then they were then treated with either 2, 5, 10, and 20 μM OCTL14 or 1.6, 3.1, 6.3, 12.5, 25, 50, and 100 μM cRGD-ZW800-PEG in growth medium for 24 h at 37 °C. Then, the dye and old medium were removed from all wells, and new medium were added and incubated for 24 h before 10 μl of CCK-8 solution was added to each well. After 3 h of incubation for OCTL14 and 4 h of incubation for cRGD-ZW800-PEG, absorbance was measured at 450 nm using a microplate reader. The cell survival rate for each dye was calculated using the following equation: Survival rate (%) = (Asample − Ab)/(Ac − Ab) × 100 (Asample, absorbance of sample; Ab, absorbance of blank well; Ac, absorbance of negative control). Experiments were repeated at least 3 times.
# FaDu cells [3] = experiment: Cellular uptake inhibition assay; type: cell-based; conditions: n = 6
# Method: To reveal the uptake mechanism of OCTL14 on FaDu cells, a cellular uptake inhibition assay was performed using bromsulphthalein (BSP) (Sigma-Aldrich, St. Louis, MO, USA) and corticosteroid (Sigma-Aldrich). First, the 15,000 cells were plated per well on a 24-well plate. After incubation for 48 h at 37 °C, cells were washed twice with 0.5 ml of HBSS. Then, the cells were pretreated with 250 μM BSP for 5 min or 25 μM corticosteroid for 5 min, before they were incubated with 2 μM OCTL14 for 15 min at 37 °C. To rule out the possible diffusion of OCTL14 across the plasma membrane, FaDu cells were incubated with 2 μM OCTL14 at 4 °C for 15 min. Serum-free medium was added to the control group without any inhibitors. After washing, images were acquired by Cytation 5 using a Cy5 filter. ImageJ software version 1.52p was used to measure the fluorescent intensity of FaDu cells at each condition.
# [4] = test system: FaDu tongue cancer xenograft; experiment: Intraoperative fluorescence imaging of orthotopic and ectopic FaDu tumors (TBR, histology); type: in vivo, mice; conditions: for Tumor-to-background ratio (TBR): FaDu tongue cancer xenograft, intravenous, within 4 h post-injection, OCTL14 cancerous tissue, cRGD-ZW800-PEG surrounding TME; for Localisation by histopathologic analysis: orthotopic FaDu tongue tumor, 4 h after intravenous injection, frozen sections, NIR and H&E
# Method: To evaluate the targetability of OCTL14 and cRGD-ZW800-PEG on the orthotopic xenograft model of tongue cancer, 0.5 × 10^6 of FaDu cells in a 30-μl mixture of saline and Matrigel (1:2 ratio) were injected subepithelially into the tip of the tongue using an insulin syringe. When the size of the tongue tumor reached 2 mm, dual fluorescence imaging was performed by injecting cRGD-ZW800-PEG and OCTL14 intravenously 4 h prior to imaging. For the ectopic xenograft model of HNSCC, 0.5 × 10^6 of FaDu cells in a 50-μl mixture of saline and Matrigel (1:2 ratio) were injected subcutaneously on the lower back of the mouse. When the size of the ectopic tumor reached 3 mm, in vivo evaluation of the targetability of the 2 NIR fluorophores was performed. All the animal surgeries were performed under anesthesia with isoflurane.
# The real-time fluorescence intensity of OCTL14 and cRGD-ZW800-PEG at the orthotopic and ectopic tumors was compared with the surrounding nontumor region (background signal) to evaluate the TBR. After intraoperative imaging, the fluorescence intensity of the tumor tissue was acquired using ImageJ software and divided by the fluorescence intensity of the surrounding tissue to calculate TBR for both OCTL14 and cRGD-ZW800-PEG. Quantitative time-course assessment of both orthotopic and ectopic tongue cancer was performed for both OCTL14 and cRGD-ZW800-PEG at 1, 4, 6, and 24 h post-intravenous injection. At least 3 head and neck tumor models were evaluated for the quantitative analysis of TBR.
# Tumor and TME targetability of OCTL14 and cRGD-ZW800-PEG were confirmed by histology analysis on the orthotopic HNSCC xenograft model. The tumor-bearing tongue was excised from the mouse after in vivo imaging of the tumors at 4 h after intravenous injection of the 2 fluorophores, and embedded in Tissue-Tek optimal cutting temperature compound (Sakura Finetek, Torrance, CA, USA). Frozen sections were acquired and placed on slides with a cut thickness of 10 μm using a cryostat (Leica, Germany). Fluorescence images were taken for both OCTL14 and cRGD-ZW800-PEG using Cy5 filter and Cy7 filter on Cytation 5, respectively. After dual fluorescence imaging, the tissue sections were stained with hematoxylin and eosin (H&E), and bright-field images of the orthotopic tongue cancer were acquired using Cytation 5.
# [5] = Photostability under NIR irradiation; conditions: under 630-nm NIR light; 25 μM in 10% FBS; up to 3 h
# [6] = Biodistribution and clearance, K-FLARE NIR imaging; conditions: tumor-bearing nude mice; 100 nmol intravenous; 4 h post-injection; SBR relative to muscle
# [7] = Serum protein binding assay, rapid equilibrium dialysis; conditions: rapid equilibrium dialysis device; 5 μM; 10% fetal bovine serum; 8 h incubation; absorbance read-out of sample and buffer chamber (Cytation 5)
# [8] = not given; remark: listed apart in the source
# [9] = not given; remark: listed apart in the source
# [10] = Cell viability assay (CCK-8); type: cell-based
# Method: as §1
smiles,measurement,setting,value
Br.C[N+]1=C(/C=C2\C(=O)C(/C=C3/N(CCC[N+](C)(C)C)c4ccc(F)cc4C3(C)C)=C2[O-])C(C)(C)c2ccccc21.[I-] [OCTL14],Uptake in FaDu cells (cell binding assay),FaDu cells [1],significantly high target affinity
same,IC50,"FaDu cells [2]; 24 h treatment at 37 °C, then 24 h in new medium, absorbance 450 nm, n = 5, read-out: IC50 (cytotoxicity, CCK-8)",42.1 µM
same,Concentration up to which little toxicity was shown,"FaDu cells [2]; CCK-8 assay, 24 h treatment",≤ 20 µM
same,Uptake in cold inhibition test,FaDu cells [3]; 2 μM OCTL14 at 4 °C,Negative uptake
same,Effect of corticosteroid (OCT inhibitor) on uptake of OCTL14,"FaDu cells [3]; 25 μM corticosteroid pretreatment 5 min, 2 μM OCTL14, 15 min, 37 °C, compared to control",significantly reduced the uptake
same,Effect of BSP (OATP inhibitor) on uptake of OCTL14,"FaDu cells [3]; 250 μM BSP pretreatment 5 min, 2 μM OCTL14, 15 min, 37 °C",little impact
same,Tumor-to-background ratio (TBR),[4],> 2.0
same,Localisation by histopathologic analysis,[4],effectively imaged the tumor cell itself
same,Photostability: remaining initial absorbance,[5],over 90%
same,Biodistribution (SBR of resected organs),[6],"high SBR in the kidney, gallbladder, and intestine"
same,"Plasma protein binding, 8 h (%Bound)",[7],4.46%
CC1(C)C(=CC=C2CCCC(C=CC3=[N+](CCC[N+](C)(C)C)c4ccc(S(=O)(=O)O)cc4C3(C)C)=C2SCCOCCOCCC(=O)NCCCC[C@@H]2NC(=O)[C@@H](Cc3ccc(O)cc3)NC(=O)[C@H](CC(=O)O)NC(=O)CNC(=O)[C@H](CCCNC(=N)N)NC2=O)N(CCC[N+](C)(C)C)c2ccc(S(=O)(=O)O)cc21 [cRGD-ZW800-PEG],absorbance maximum,,784 nm
same,quantum yield (QY),[8],8.52%
same,fluorescence maximum,[9],809 nm
same,Uptake in FaDu cells (cell binding assay),FaDu cells [1],limited uptake
same,IC50,[10],45.8 µM
same,Tumor-to-background ratio (TBR),[4],> 1.5
same,Localisation by histopathologic analysis,[4],peritumoral tissue was the primary target
